The test system of one data set is β-adrenergic. Nature of the data set: β-adrenergic blockage, in vitro. Set-up: unit not given here. Particulars: in vit., rat, dose 10. How it is done: (§1) As the results of Table 3 show, the compounds of this invention have both lower toxicity and different side effects than metoclopramide. Compounds of this invention have interesting pharmacological characteristics. The pharmaco dynamics of the compounds prepared in Examples 9, 43 and 48 in the form of their hydrochlorides, as well as the reference compound, metoclopramide dihydrochloride, were determined by pharmacological screening for 54 group activities. The activities which were found were confirmed by secondary tests. Additionally, the ED100 of known group-specific comparative compounds is given.

A short description of data set [1]: antimicrobial characteristics (summary statement). Particulars: result in words.
Data set [2] in a line: antiallergic characteristics (summary statement). The following applies: result in words.
The next data set relates to Adjuvans arthritis. Nature of the data set: Adjuvans arthritis stoppage. The data set is classed as in vivo, rat. The following applies: for anti-inflammatory activity in the adjuvenous arthritis test: result in words; for Adjuvans arthritis stoppage, percent inhibition of the secondary lesions on the 14th day (first value) / Adjuvans arthritis stoppage, percent inhibition of the secondary lesions on the 14th day (second value): rat, 100 mg/kg p.o.; for Adjuvans arthritis stoppage, percent inhibition of the secondary lesions on the 14th day (first value): first of two values; for Adjuvans arthritis stoppage, percent inhibition of the secondary lesions on the 14th day (second value): second of two values. As to the method:
as §1

The nature of data set [3]: acute carrageneen experiment. The data set is classed as in vivo. The following applies: result in words.
The next data set can be described thus: Antiedematous test. Type of data set: in vivo. The following applies: po, rat, p.o.; for minimal effective dose: read-out: Antiedematous, MED (average minimal effective dose). As to the method: as §1
A short description of another data set: Antithrombotic test. The following applies: po; for minimal effective dose at 100 mg/kg: rat, p.o., read-out: Antithrombotic, MED (average minimal effective dose). The data set is classed as in vivo, rat. How it is done: as §1
Another data set in a line: Muscle relaxant test. Type of data set: in vivo, mouse. Particulars: po; for minimal effective dose at 300 mg/kg: mouse, p.o., read-out: Muscle relaxant, MED (average minimal effective dose). As to the method:
as §1

The next data set in a line: Antiasthmatic test. Particulars: po, rat, p.o.; for minimal effective dose: read-out: Antiasthmatic, MED (average minimal effective dose). The data set is classed as in vivo. As to the method: as §1
A short description of data set [4]: Systematic anaphylactic test. The data set is classed as in vivo. The following applies: po, mouse, p.o. How it is done: as §1
The nature of the next data set: Cataleptic test. Type of data set: in vivo, mouse. Particulars: po; for minimal effective dose at 100 mg/kg: mouse, p.o., read-out: Cataleptic, MED (average minimal effective dose). As to the method:
as §1

The next data set has as its system E. Coli. Nature of the data set: antibacterial test E. Coli, in vitro. Particulars: in vit. Type of data set: cell-based. As to the method:
as §1

A further data set can be described thus: Amphetamine stereotype. Type of data set: in vivo, mouse. The following applies: po. How it is done:
as §1

The next data set in a line: Antiaggressive test. Type of data set: in vivo, mouse. As to the method: as §1
A further data set is described as follows: Anti-electroshock test. The following applies: po, mouse, p.o. Type of data set: in vivo. As to the method: as §1
The next data set can be described thus: Antiarrhytmic test. Particulars: mouse, i.p. The data set is classed as in vivo. How it is done: as §1
For data set [5] the following is noted: rat, cited from earlier work.
For data set [6] the following is noted: i.p., mouse; cited from earlier work.

Counter-ions that a name gives are not always drawn. Like-named read-outs stand apart in the source and are kept apart here.

`CCN(CC)CCNC(=O)c1cc(Cl)c(NC(=O)C(C)(C)Oc2ccc(Cl)cc2)cc1OC` [Example 9]: the “β-adrenergic blockage, MEC (average effective concentration)” value with β-adrenergic is 10.
In the case of `CCN(CC)CCNC(=O)c1cc(Cl)c(NC(=O)COc2ccc(Cl)cc2)cc1OC` [Example 40], in [1], the antimicrobial characteristics result is given as “weak antimicrobial”. The antiallergic characteristics entry in data set [2] is reported as “antiallergic characteristics”. Also, the “anti-inflammatory activity in the adjuvenous arthritis test” value in the data set with Adjuvans arthritis is “very strong anti-inflammatory activity”. Moreover, the “anti-inflammatory activity in the acute carrageneen experiment” value in data set [3] is recorded as “very strong anti-inflammatory activity”.
As to `CCN(CC)CCNC(=O)c1cc(Cl)c(NC(=O)COc2ccc(Cl)cc2)cc1OC` [Example 43], the minimal effective dose in the data set “Antiedematous test” was found to be 100 mg/kg; in the data set “Antiasthmatic test” it was 100 mg/kg; in data set [4] (read-out: Systematic anaphylactic, MED (average minimal effective dose)), 100 mg/kg. Also, the minimal effective dose at 100 mg/kg in the data set “Antithrombotic test” was determined as 50 mg/kg; in “Cataleptic test”, 100 mg/kg. Besides, in the data set “Muscle relaxant test”, the minimal effective dose at 300 mg/kg was 300 mg/kg. Further, the “Adjuvans arthritis stoppage, percent inhibition of the secondary lesions on the 14th day (first value)” value with Adjuvans arthritis is 43%. In addition, the “Adjuvans arthritis stoppage, percent inhibition of the secondary lesions on the 14th day (second value)” value in the data set on Adjuvans arthritis is listed as 46%.
As for `CCN(CC)CCNC(=O)c1cc(Cl)c(NC(=O)C(C)Oc2ccc(Cl)cc2)cc1OC` (stereo not drawn) [Example 45], the antimicrobial characteristics result in data set [1] is given as “weak antimicrobial”. In addition, in data set [2], the antiallergic characteristics result is “antiallergic characteristics”. Further, in the data set with Adjuvans arthritis, the “anti-inflammatory activity in the adjuvenous arthritis test” value was “very strong anti-inflammatory activity”. Moreover, in [3], the “anti-inflammatory activity in the acute carrageneen experiment” value is listed as “very strong anti-inflammatory activity”.
For the molecule `CCN(CC)CCNC(=O)c1cc(Cl)c(NC(=O)C(C)Oc2ccc(Cl)cc2)cc1OC` (stereo not drawn) [Example 48], the minimal effective dose at 100 mg/kg in the data set “Antithrombotic test” worked out at 100 mg/kg. In addition, the minimal effective dose in “Antiasthmatic test” is 100 mg/kg. In addition, in the data set with Adjuvans arthritis, the “Adjuvans arthritis stoppage, percent inhibition of the secondary lesions on the 14th day (first value)” value came to 45% and the “Adjuvans arthritis stoppage, percent inhibition of the secondary lesions on the 14th day (second value)” value was found to be 33%.
For `CC(=O)Oc1ccccc1C(=O)O` [acetylsalicylic acid], the ED100 in “Antithrombotic test” (Rattus norvegicus, read-out: Antithrombotic, ED100 of reference compound) came to 100 mg/kg.
As for `CC1(C)S[C@@H]2[C@H](NC(=O)[C@H](N)c3ccccc3)C(=O)N2[C@H]1C(=O)O` [ampicillin], the “E. Coli, ED100 of reference compound” value with E. Coli amounted to 0.5 mg/kg.
For `CN(C)CCCN1c2ccccc2Sc2ccc(Cl)cc21` [chlorpromazine], the ED100 in “Amphetamine stereotype” (Mus musculus, read-out: Amphetamine stereotype, ED100 of reference compound) amounted to 5 mg/kg; in the data set “Antiaggressive test” (Mus musculus, po, read-out: Antiaggressive, ED100 of reference compound), 5 mg/kg.
Regarding `O=C(O)c1cc(=O)c2c(OCC(O)COc3cccc4oc(C(=O)O)cc(=O)c34)cccc2o1` [chromoglycine-sodium], the ED100 in the data set “Antiasthmatic test” (read-out: Antiasthmatic, ED100 of reference compound) is 60 mg/kg.
Consider `O=C1NC(=O)C(c2ccccc2)(c2ccccc2)N1` [diphenylhydomtoin], for which the ED100 in the data set “Anti-electroshock test” (read-out: Anti-electroshock, ED100 of reference compound) was found to be 10 mg/kg.
For the molecule `CCN(CC)CCNC(=O)c1cc(Cl)c(N)cc1OC` [metoclopramide dihydrochloride], in the data set “Amphetamine stereotype” (mouse, p.o., dose 25 mg/kg, read-out: Amphetamine stereotype, MED (average minimal effective dose)), the minimal effective dose at 25 mg/kg was determined as 25 mg/kg. Further, the minimal effective dose in the data set “Antiedematous test” was determined as 50 mg/kg; in “Antiarrhytmic test” (ip, read-out: Antiarrhytmic, MED (average minimal effective dose)) it was 100 mg/kg; in “Anti-electroshock test” (read-out: Anti-electroshock, MED (average minimal effective dose)), 100 mg/kg. The minimal effective dose at 300 mg/kg in the data set “Muscle relaxant test” was 100 mg/kg. In the data set “Antiaggressive test” (mouse, p.o., dose 50 mg/kg, MED not given), this molecule returned an Antiaggressive of 50 mg/kg. For the same molecule, the minimal effective dose at 100 mg/kg in the data set “Cataleptic test” was determined as 100 mg/kg.
Regarding `CCN(CC)CCNC(=O)c1cc(Cl)c(N)cc1OC` [metoclopramide], the results for the LD50 in data set [5] (i.p.), in data set [5] (oral) and in data set [6] were 180 mg/kg, 235 mg/kg and 242 mg/kg, respectively.
On to `CCC1(c2ccccc2)C(=O)NC(=O)NC1=O` [phenobarbital], for which the ED100 in the data set “Muscle relaxant test” (Mus musculus, read-out: Muscle relaxant, ED100 of reference compound) is 100 mg/kg; in “Cataleptic test” (Mus musculus, read-out: Cataleptic, ED100 of reference compound) it was 100 mg/kg.
Regarding `CCCCC1C(=O)N(c2ccccc2)N(c2ccccc2)C1=O` [phenybutazone], the ED100 in the data set “Antiedematous test” (read-out: Antiedematous, ED100 of reference compound) amounted to 50 mg/kg.
`CN(C)CCOc1ccccc1Cc1ccccc1` [phenyltoloxamine]: the ED100 in data set [4] (read-out: Systematic anaphylactic, ED100 of reference compound) was 50 mg/kg.
On to guanidine, for which the “Antiarrhytmic, ED100 of reference compound” value in the data set “Antiarrhytmic test” is on record as 100 mg/kg.

What is called minimal effective dose is the lowest level tested that produced the effect sought. By LD50 is commonly meant the dose at which mortality reaches 50%.

Values taken from patent publication US4146637A, “Anti-inflammatory N-acyl substituted benzamides” (priority 1976, dated 1979).
